Results taken from ChEMBL document CHEMBL2202954, “The effect of PLC-γ2 inhibitors on the growth of human tumour cells” (2012).

Assays:
Assay type in all cases: functional
MDA-MB-468 = experiment: Cytotoxicity against human MDA-MB-468 cells assessed as cellular growth at 10 uM by SRB assay
T47D = experiment: Cytotoxicity against human T47D cells assessed as cellular growth at 10 uM by SRB assay
BT-549 = experiment: Cytotoxicity against human BT549 cells assessed as cellular growth at 10 uM by SRB assay
Hs-578T = experiment: Cytotoxicity against human Hs578T cells assessed as cellular growth at 10 uM by SRB assay
MDA-MB-231 = experiment: Cytotoxicity against human MDA-MB-231 cells assessed as cellular growth at 10 uM by SRB assay
MCF7 = experiment: Cytotoxicity against human MCF7 cells assessed as cellular growth at 10 uM by SRB assay
DU-145 = experiment: Cytotoxicity against human DU145 cells assessed as cellular growth at 10 uM by SRB assay
UO-31 = experiment: Cytotoxicity against human UO31 cells assessed as cellular growth at 10 uM by SRB assay
PC-3 = experiment: Cytotoxicity against human PC3 cells assessed as cellular growth at 10 uM by SRB assay
TK-10 = experiment: Cytotoxicity against human TK10 cells assessed as cellular growth at 10 uM by SRB assay
SN12C = experiment: Cytotoxicity against human SN12C cells assessed as cellular growth at 10 uM by SRB assay
RXF 393 = experiment: Cytotoxicity against human RXF393 cells assessed as cellular growth at 10 uM by SRB assay
ACHN = experiment: Cytotoxicity against human ACHN cells assessed as cellular growth at 10 uM by SRB assay
CAKI-1 = experiment: Cytotoxicity against human Caki1 cells assessed as cellular growth at 10 uM by SRB assay
A498 = experiment: Cytotoxicity against human A498 cells assessed as cellular growth at 10 uM by SRB assay
786-0 = experiment: Cytotoxicity against human 786-0 cells assessed as cellular growth at 10 uM by SRB assay
SK-OV-3 = experiment: Cytotoxicity against human SKOV3 cells assessed as cellular growth at 10 uM by SRB assay
[1] = Cytotoxicity against human NCI-ADR-RES cells assessed as cellular growth at 10 uM by SRB assay
OVCAR-8 = experiment: Cytotoxicity against human OVCAR8 cells assessed as cellular growth at 10 uM by SRB assay
OVCAR-5 = experiment: Cytotoxicity against human OVCAR5 cells assessed as cellular growth at 10 uM by SRB assay
OVCAR-3 = experiment: Cytotoxicity against human OVCAR3 cells assessed as cellular growth at 10 uM by SRB assay
IGROV-1 = experiment: Cytotoxicity against human IGROV1 cells assessed as cellular growth at 10 uM by SRB assay
UACC-62 = experiment: Cytotoxicity against human UACC62 cells assessed as cellular growth at 10 uM by SRB assay
UACC-257 = experiment: Cytotoxicity against human UACC257 cells assessed as cellular growth at 10 uM by SRB assay
SK-MEL-5 = experiment: Cytotoxicity against human SK-MEL-5 cells assessed as cellular growth at 10 uM by SRB assay
SK-MEL-28 = experiment: Cytotoxicity against human SK-MEL-28 cells assessed as cellular growth at 10 uM by SRB assay
SK-MEL-2 = experiment: Cytotoxicity against human SK-MEL-2 cells assessed as cellular growth at 10 uM by SRB assay
MDA-MB-435 = experiment: Cytotoxicity against human MDA-MB-435 cells assessed as cellular growth at 10 uM by SRB assay
M14 = experiment: Cytotoxicity against human M14 cells assessed as cellular growth at 10 uM by SRB assay
Malme-3M = experiment: Cytotoxicity against human MALME-3M cells assessed as cellular growth at 10 uM by SRB assay
LOX IMVI = experiment: Cytotoxicity against human LOXIMVI cells assessed as cellular growth at 10 uM by SRB assay
U-251 = experiment: Cytotoxicity against human U251 cells assessed as cellular growth at 10 uM by SRB assay
SNB-75 = experiment: Cytotoxicity against human SNB75 cells assessed as cellular growth at 10 uM by SRB assay
SNB-19 = experiment: Cytotoxicity against human SNB19 cells assessed as cellular growth at 10 uM by SRB assay
SF-539 = experiment: Cytotoxicity against human SF539 cells assessed as cellular growth at 10 uM by SRB assay
SF-295 = experiment: Cytotoxicity against human SF295 cells assessed as cellular growth at 10 uM by SRB assay
SF-268 = experiment: Cytotoxicity against human SF268 cells assessed as cellular growth at 10 uM by SRB assay
SW-620 = experiment: Cytotoxicity against human SW620 cells assessed as cellular growth at 10 uM by SRB assay
KM12 = experiment: Cytotoxicity against human KM12 cells assessed as cellular growth at 10 uM by SRB assay
HT-29 = experiment: Cytotoxicity against human HT-29 cells assessed as cellular growth at 10 uM by SRB assay
HCT-15 = experiment: Cytotoxicity against human HCT15 cells assessed as cellular growth at 10 uM by SRB assay
HCT-116 = experiment: Cytotoxicity against human HCT116 cells assessed as cellular growth at 10 uM by SRB assay
HCC 2998 = experiment: Cytotoxicity against human HCC2998 cells assessed as cellular growth at 10 uM by SRB assay
NCI-H522 = experiment: Cytotoxicity against human NCI-H522 cells assessed as cellular growth at 10 uM by SRB assay
COLO 205 = experiment: Cytotoxicity against human COLO205 cells assessed as cellular growth at 10 uM by SRB assay
NCI-H460 = experiment: Cytotoxicity against human NCI-H460 cells assessed as cellular growth at 10 uM by SRB assay
NCI-H322M = experiment: Cytotoxicity against human NCI-H322M cells assessed as cellular growth at 10 uM by SRB assay
NCI-H226 = experiment: Cytotoxicity against human NCI-H226 cells assessed as cellular growth at 10 uM by SRB assay
NCI-H23 = experiment: Cytotoxicity against human NCI-H23 cells assessed as cellular growth at 10 uM by SRB assay
EKVX = experiment: Cytotoxicity against human EKVX cells assessed as cellular growth at 10 uM by SRB assay
HOP-62 = experiment: Cytotoxicity against human HOP62 cells assessed as cellular growth at 10 uM by SRB assay
A549 = experiment: Cytotoxicity against human A549 cells assessed as cellular growth at 10 uM by SRB assay
SR = experiment: Cytotoxicity against human SR cells assessed as cellular growth at 10 uM by SRB assay
MOLT-4 = experiment: Cytotoxicity against human MOLT4 cells assessed as cellular growth at 10 uM by SRB assay
RPMI-8226 = experiment: Cytotoxicity against human RPMI8226 cells assessed as cellular growth at 10 uM by SRB assay
K562 = experiment: Cytotoxicity against human K562 cells assessed as cellular growth at 10 uM by SRB assay
HL-60(TB) = experiment: Cytotoxicity against human HL-60(TB) cells assessed as cellular growth at 10 uM by SRB assay
CCRF-CEM = experiment: Cytotoxicity against human CCRF-CEM cells assessed as cellular growth at 10 uM by SRB assay

Cc1ccc(NC(=O)c2sc3nc4c(cc3c2N)C(=O)CCC4)cc1Cl
Activity (MDA-MB-468): 104.98%
Activity (T47D): 105.09%
Activity (BT-549): 114.66%
Activity (Hs-578T): 112.53%
Activity (MDA-MB-231): 113.04%
Activity (MCF7): 102.05%
Activity (DU-145): 108.78%
Activity (UO-31): 110.67%
Activity (PC-3): 103.74%
Activity (TK-10): 96.53%
Activity (SN12C): 119.21%
Activity (RXF 393): 117.2%
Activity (ACHN): 109.05%
Activity (CAKI-1): 85.93%
Activity (A498): 97.9%
Activity (786-0): 103.81%
Activity (SK-OV-3): 113.94%
Activity [1]: 103.82%
Activity (OVCAR-8): 103.45%
Activity (OVCAR-5): 100.98%
Activity (OVCAR-3): 112.77%
Activity (IGROV-1): 105.54%
Activity (UACC-62): 108.17%
Activity (UACC-257): 95.07%
Activity (SK-MEL-5): 101.61%
Activity (SK-MEL-28): 108.49%
Activity (SK-MEL-2): 112.11%
Activity (MDA-MB-435): 99.15%
Activity (M14): 121.85%
Activity (Malme-3M): 112.49%
Activity (LOX IMVI): 99.16%
Activity (U-251): 97.87%
Activity (SNB-75): 110.07%
Activity (SNB-19): 114.43%
Activity (SF-539): 102.38%
Activity (SF-295): 79.97%
Activity (SF-268): 115.11%
Activity (SW-620): 112.63%
Activity (KM12): 115.57%
Activity (HT-29): 97.53%
Activity (HCT-15): 97.31%
Activity (HCT-116): 105.04%
Activity (HCC 2998): 102.57%
Activity (NCI-H522): 96.14%
Activity (COLO 205): 127.7%
Activity (NCI-H460): 106.36%
Activity (NCI-H322M): 109.22%
Activity (NCI-H226): 101.89%
Activity (NCI-H23): 100.21%
Activity (EKVX): 86.19%
Activity (HOP-62): 110.02%
Activity (A549): 100.84%
Activity (SR): 105.35%
Activity (MOLT-4): 107.73%
Activity (RPMI-8226): 104.81%
Activity (K562): 92.98%
Activity (HL-60(TB)): 105.82%
Activity (CCRF-CEM): 104.3%

Cc1cc(C)c(NC(=O)c2sc3nc4c(cc3c2N)C(=O)CC(C)(C)C4)c(C)c1
Activity (MDA-MB-468): 85.24%
Activity (T47D): 88.69%
Activity (BT-549): 109.43%
Activity (Hs-578T): 108.69%
Activity (MDA-MB-231): 115.09%
Activity (MCF7): 99.03%
Activity (DU-145): 127.81%
Activity (UO-31): 99.05%
Activity (PC-3): 87.69%
Activity (TK-10): 97.91%
Activity (SN12C): 103.6%
Activity (RXF 393): 105.64%
Activity (ACHN): 106.81%
Activity (CAKI-1): 82.45%
Activity (A498): 89.84%
Activity (786-0): 103.33%
Activity (SK-OV-3): 116.6%
Activity [1]: 95.48%
Activity (OVCAR-8): 107.09%
Activity (OVCAR-5): 100.8%
Activity (OVCAR-3): 112.82%
Activity (IGROV-1): 95.36%
Activity (UACC-62): 96.9%
Activity (UACC-257): 101.32%
Activity (SK-MEL-5): 89.79%
Activity (SK-MEL-28): 107.04%
Activity (SK-MEL-2): 119.22%
Activity (MDA-MB-435): 97.97%
Activity (M14): 107.36%
Activity (Malme-3M): 92.73%
Activity (U-251): 99.68%
Activity (SNB-75): 105.78%
Activity (SNB-19): 122.53%
Activity (SF-539): 102.77%
Activity (SF-295): 81.11%
Activity (SF-268): 115.09%
Activity (SW-620): 106.45%
Activity (KM12): 112.78%
Activity (HT-29): 96.21%
Activity (HCT-15): 96.97%
Activity (HCT-116): 99.79%
Activity (HCC 2998): 105.78%
Activity (NCI-H522): 100.45%
Activity (COLO 205): 117%
Activity (NCI-H460): 102.63%
Activity (NCI-H322M): 115.34%
Activity (NCI-H226): 92.57%
Activity (NCI-H23): 94.31%
Activity (EKVX): 92.06%
Activity (HOP-62): 111.49%
Activity (A549): 96.6%
Activity (SR): 103.93%
Activity (MOLT-4): 100.05%
Activity (RPMI-8226): 90.56%
Activity (K562): 90.16%
Activity (HL-60(TB)): 108.84%
Activity (CCRF-CEM): 90.08%
